The test system of assay [1] is Vγ2Vδ2 T cells. In words: γδ T cell activation (TNF-α release and proliferation). It is filed as cell-based, human. A digest of the protocol:
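Vγ2Vδ2 T cell clones (CD4+ JN.24, CD4+ HF.2, CD8αα+ 12G12, CD4−8− HD.108) stimulated with phosphoantigens plus 0.05% glutaraldehyde-fixed APCs: CP.EBV B cells for CD4+ clones, Va-2 fibroblasts for others. TNF-α release and proliferation measured; curve minima from global fitting per experiment, maxima fitted per compound unconstrained.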

Assay [2] relates to cancer cell growth (average). In words: Inhibition of cancer cell growth (average). The settings on record: Homo sapiens. The class given is cell-based. On the procedure:
Compound 754 was synthesized and tested for activity.
Cell Growth Inhibition Assays. The human tumor cell lines MCF-7 (breast adenocarcinoma), NCI-H460 (lung large cell) and SF-268 (central nervous system glioblastoma) were obtained from the National Cancer Institute. All lines were cultured in RPMI-1640 medium supplemented with 10% fetal bovine serum and 2 mM L-glutamine at 37° C. in a 5% CO2 atmosphere with 100% humidity. A broth microdilution method was used to determine IC50 values for growth inhibition by each bisphosphonate. […] NBPs were typically initially dissolved in H2O (0.01 M) while NNBPs were typically dissolved in DMSO (0.01 M). Plates were then incubated for 4 days at 37° C. in a 5% CO2 atmosphere at 100% humidity after which an MTT ((3-(4,5-dimethylthiazole-2-yl)-2,5-diphenyltetrazolium bromide) cell proliferation assay (ATCC, Manassas, Va.) was used to obtain dose-response curves. The DMSO carrier had no effect on cell proliferation.

Assay [3] has as its target T1, human DPPS (Homo sapiens, UniProt Q5T2R2).
T1 construct: made in house
T1 sequence (Q5T2R2 1-415): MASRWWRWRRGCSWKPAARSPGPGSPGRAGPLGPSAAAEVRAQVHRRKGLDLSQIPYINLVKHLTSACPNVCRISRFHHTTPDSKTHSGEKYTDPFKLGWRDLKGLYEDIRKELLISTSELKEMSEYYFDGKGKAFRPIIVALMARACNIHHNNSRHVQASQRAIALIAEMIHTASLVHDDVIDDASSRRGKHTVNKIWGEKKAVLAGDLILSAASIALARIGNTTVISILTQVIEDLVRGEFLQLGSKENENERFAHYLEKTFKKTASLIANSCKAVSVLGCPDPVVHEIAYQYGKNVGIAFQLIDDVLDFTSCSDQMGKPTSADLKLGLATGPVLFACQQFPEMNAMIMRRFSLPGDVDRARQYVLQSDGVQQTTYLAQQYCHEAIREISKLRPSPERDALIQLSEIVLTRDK
T1 sequence (Q86YH6 1-399 partner): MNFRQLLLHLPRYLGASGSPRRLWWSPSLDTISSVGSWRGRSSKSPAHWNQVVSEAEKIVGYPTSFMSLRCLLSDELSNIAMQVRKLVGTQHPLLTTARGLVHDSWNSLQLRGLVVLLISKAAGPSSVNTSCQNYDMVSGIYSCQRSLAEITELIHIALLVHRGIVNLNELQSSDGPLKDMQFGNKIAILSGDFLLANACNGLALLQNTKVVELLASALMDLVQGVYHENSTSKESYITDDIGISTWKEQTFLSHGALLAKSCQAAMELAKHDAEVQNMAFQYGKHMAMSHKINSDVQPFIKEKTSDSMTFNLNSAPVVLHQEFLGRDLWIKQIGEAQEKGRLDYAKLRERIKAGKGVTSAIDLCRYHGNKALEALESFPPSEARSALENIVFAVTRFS
In words: human DPPS enzyme inhibition. It is filed as biochemical. The source says: (§1) To test our polypharmaceutical hypothesis, we expressed three enzymes: human FPPS, GGPPS and DPPS, and tested each for their inhibition by a series of bisphosphonates.

In assay [4] the test system is SF-268 (central nervous system glioblastoma). The assay is described as follows: SF-268 cell growth inhibition (MTT). It is filed as cell-based, human. The following applies: Homo sapiens, SF-268.
In assay [5] the test system is MCF-7 (breast adenocarcinoma). The assay is described as follows: MCF-7 cell growth inhibition (MTT), incl. FOH/GGOH rescue. It is filed as cell-based, human. The following applies: for IC50: Homo sapiens, MCF7.
The target in assay [6] is T2, human recombinant geranylgeranyl diphosphate synthase (hGGPPS) (Homo sapiens, UniProt O95749).
T2 construct: made in house
T2 sequence (O95749 1-300): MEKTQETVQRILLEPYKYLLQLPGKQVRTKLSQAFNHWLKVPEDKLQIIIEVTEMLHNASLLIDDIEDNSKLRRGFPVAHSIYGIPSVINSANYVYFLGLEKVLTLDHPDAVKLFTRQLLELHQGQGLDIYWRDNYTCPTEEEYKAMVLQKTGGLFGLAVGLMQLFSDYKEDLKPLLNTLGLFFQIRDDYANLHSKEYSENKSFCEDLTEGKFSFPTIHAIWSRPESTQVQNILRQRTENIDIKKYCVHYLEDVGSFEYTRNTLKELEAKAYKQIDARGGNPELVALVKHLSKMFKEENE
In words: Human recombinant GGPPS inhibition (radiometric assay). It is filed as biochemical. On the procedure: as §1
Human recombinant GGPPS inhibition. The purification of human recombinant geranylgeranyl diphosphate synthase (hGGPPS) followed the protocol reported previously^2. GGPPS inhibition by bisphosphonates was determined using the radiometric assay reported previously^2 with slight modification. […] IPP and incubated at 37° C. for 20 min. The reaction was terminated by the addition of 75 μL of HCl/MeOH. Following a second 20 min incubation at 37° C. to effectively hydrolyze the allylic pyrophosphates, the reaction mixtures were neutralized by the addition of 75 μL of 6 N NaOH and extracted with 500 μL of hexane. 200 μL of the organic phase was transferred to a scintillation vial for counting. The IC50 values were obtained by fitting the data to the dose-response curve in Origin 6.1 (OriginLab Corp., Northampton, Mass., www.OriginLab.com).

Read-outs that look alike come from different tables or passages of the source.

Take `CCCCCCCCCCOc1cccc(CC(O)(P(=O)(O)O)P(=O)(O)O)c1` [BPH-754]: the “γδ T cell activation” value in assay [1] is recorded as “no effect”. Also, the IC50 in assay [2] was 500 nM; in assay [4] (Table 1, experimental, read-out: SF-268 pIC50 (converted)) it was 25100 nM; in assay [4] (read-out: IC50, inhibition of human CNS cancer SF268), 524 nM; in assay [5] (Table 1, experimental, read-out: MCF-7 pIC50 (converted)) it was 25100 nM; in assay [5] (read-out: IC50, inhibition of human breast cancer cell line MCF7), 401 nM. In assay [3], the “effect on DPPS” value is “essentially no effect”. Also, the Ki in assay [3] (Table 1, experimental, read-out: DPPS_pKi (converted)) is 200 nM; in assay [6] (Table 1, experimental, read-out: GGPPS pKi (converted)) it was 15.8 nM. The “rescue from growth inhibition by geranylgeraniol (GGOH)” value in assay [5] (GGOH 20 μM) is “rescued by GGOH”. The “effect on GGPPS” value in assay [6] is listed as “good GGPPS inhibitor”.
